Tests used:
Type in all cases: functional
Mus musculus [1] = assay: Reduction in plasma cholesterol in LP-remnants in LDL receptor/ApoE deficient mouse at 10 umol/kg/day dosed via gavage route once daily in afternoon for first three days and in morning the last day by FPLC method relative to untreated control; parameters: scale not given: the % may be the effect or the level left
Mus musculus [2] = assay: Reduction in plasma total cholesterol level in LDL receptor/ApoE deficient mouse at 0.625 umol/kg/day dosed via gavage route once daily in afternoon for first three days and in morning the last day by FPLC method relative to untreated control; parameters: scale not given: the % may be the effect or the level left
Mus musculus [3] = assay: Effect on plasma HDL level in LDL receptor/ApoE deficient mouse at 10 umol/kg/day dosed via gavage route and co-administered with 80 to 100 mg/kg/day mixed with R3 chow diet for 7 days relative to untreated control
Mus musculus [4] = assay: Reduction in plasma total cholesterol level in LDL receptor/ApoE deficient mouse at 10 umol/kg/day dosed via gavage route and co-administered with 80 to 100 mg/kg/day mixed with R3 chow diet for 7 days relative to untreated control; parameters: scale not given: the % may be the effect or the level left
Mus musculus [5] = assay: Reduction in plasma cholesterol in LP-remnants plus LDL/HDL ratio level in LDL receptor/ApoE deficient mouse at 10 umol/kg/day dosed via gavage route and co-administered with 80 to 100 mg/kg/day mixed with R3 chow diet for 7 days relative to untreated control; parameters: scale not given: the % may be the effect or the level left
Mus musculus [6] = assay: Reduction in plasma cholesterol in LP-remnants plus LDL/HDL ratio level in LDL receptor/ApoE deficient mouse at 10 umol/kg/day dosed via gavage route once daily in afternoon for first three days and in morning the last day by FPLC method relative to untreated control; parameters: scale not given: the % may be the effect or the level left
Mus musculus [7] = assay: Effect on plasma triglyceride level in LDL receptor/ApoE deficient mouse at 10 umol/kg/day dosed via gavage route and co-administered with 80 to 100 mg/kg/day mixed with R3 chow diet for 7 days relative to untreated control
Mus musculus [8] = assay: Reduction in plasma cholesterol in LP-remnants in LDL receptor/ApoE deficient mouse at 10 umol/kg/day dosed via gavage route and co-administered with 80 to 100 mg/kg/day mixed with R3 chow diet for 7 days relative to untreated control; parameters: scale not given: the % may be the effect or the level left
Mus musculus [9] = assay: Effect on plasma triglyceride level in LDL receptor/ApoE deficient mouse at 10 umol/kg/day dosed via gavage route once daily in afternoon for first three days and in morning the last day relative to untreated control
Mus musculus [10] = assay: Reduction in plasma total cholesterol level in LDL receptor/ApoE deficient mouse at […] dosed via gavage route once daily in afternoon for first three days and in morning the last day by FPLC method relative to untreated control; parameters: scale not given: the % may be the effect or the level left
Mus musculus [11] = assay: Reduction in plasma LDL level in LDL receptor/ApoE deficient mouse at […] dosed via gavage route once daily in afternoon for first three days and in morning the last day by FPLC method relative to untreated control; parameters: scale not given: the % may be the effect or the level left
Mus musculus [12] = assay: Reduction in plasma LDL level in LDL receptor/ApoE deficient mouse at 10 umol/kg/day dosed via gavage route and co-administered with 80 to 100 mg/kg/day mixed with R3 chow diet for 7 days relative to untreated control; parameters: scale not given: the % may be the effect or the level left
Mus musculus [13] = assay: Reduction in plasma total cholesterol level in LDL receptor/ApoE deficient mouse at 10 umol/kg/day dosed via gavage route once daily in afternoon for first three days and in morning the last day by FPLC method relative to untreated control; parameters: scale not given: the % may be the effect or the level left
Mus musculus [14] = assay: Reduction in plasma LDL level in LDL receptor/ApoE deficient mouse at 10 umol/kg/day dosed via gavage route once daily in afternoon for first three days and in morning the last day by FPLC method relative to untreated control; parameters: scale not given: the % may be the effect or the level left
Mus musculus [15] = assay: Effect on plasma HDL level in LDL receptor/ApoE deficient mouse at 10 umol/kg/day dosed via gavage route once daily in afternoon for first three days and in morning the last day by FPLC method relative to untreated control
Mus musculus [16] = assay: Reduction in plasma LDL level in LDL receptor/ApoE deficient mouse at 80 to 100 mg/kg/day mixed with R3 chow diet by FPLC method relative to untreated control; parameters: scale not given: the % may be the effect or the level left
Mus musculus [17] = assay: Effect on plasma HDL level in LDL receptor/ApoE deficient mouse at 80 to 100 mg/kg/day mixed with R3 chow diet by FPLC method relative to untreated control

CCCC[C@]1(CC)CS(=O)(=O)c2cc(O[C@@H]3O[C@H](C(=O)O)[C@@H](O)[C@H](O)[C@H]3O)ccc2[C@@H](c2ccccc2)N1
Activity (Mus musculus [1]): 54 - 62%
Activity (Mus musculus [2]): 9%
Activity (Mus musculus [3]): 15%
Activity (Mus musculus [4]): 64%
Activity (Mus musculus [5]): 71%
Activity (Mus musculus [6]): 54 - 55%
Activity (Mus musculus [7]): 43%
Activity (Mus musculus [8]): 69%
Activity (Mus musculus [9]): 7 - 23%
Activity (Mus musculus [10]): 28%
Activity (Mus musculus [11]): 14%
Activity (Mus musculus [12]): 64%
Activity (Mus musculus [13]): 35 - 42%
Activity (Mus musculus [14]): 20 - 29%
Activity (Mus musculus [15]): 22 - 36%

CC(C)c1c(C(=O)Nc2ccccc2)c(-c2ccccc2)c(-c2ccc(F)cc2)n1CC[C@@H](O)C[C@@H](O)CC(=O)[O-].CC(C)c1c(C(=O)Nc2ccccc2)c(-c2ccccc2)c(-c2ccc(F)cc2)n1CC[C@@H](O)C[C@@H](O)CC(=O)[O-].[Ca+2] [ATORVASTATIN CALCIUM]
Activity (Mus musculus [16]): 43%
Activity (Mus musculus [17]): 22%

Source: ChEMBL document CHEMBL3881524, “Use of benzothiazepines having activity as inhibitors of ileal bile acid transport for reducing cholesterololemia” (2005)
